Measured values from patent publication US20080057134A1, “Antifungal compositions and method” (AgION Technologies, Inc., priority 2006, published 2008).

System: Aspergillus niger
Assay: Direct inoculation fungal testing of coated filter paper (modified ASTM G21)
Type: cell-based
Settings: text summary of Tables 1 and 2, Aspergillus niger

Cc1cc(CC(C)CC(C)(C)C)n(O)c(=O)c1.NCCO (stereo not shown) [picrotone olamine, monoethanolamine salt of hydroxymethyl trimethylpentyl pyridone]
antifungal properties / bioefficacy in words: excellent to good antifungal properties
